The record followed here is US7960391B2, “Heterocyclylethylbenzamide derivatives” (Bayer Cropscience AG, priority 2005, dated 2011).

Each structure is given as a SMILES string.

One assay concerns Alternaria brassicae. Put plainly: In vivo test on Alternaria brassicae (leaf spot of crucifers). As to conditions: for effectiveness on Alternaria brassicae: 330 ppm, comparison compounds of WO 01/11965. The protocol: In Vivo Test on Alternaria brassicae (Leaf Spot of Crucifers)
The active ingredient tested is prepared by potter homogenisation in a concentrated suspension type formulation at 100 g/l. This suspension is then diluted with water to obtain the desired active material concentration.
Radish plants (Pernot variety) in starter cups, sown on a 50/50 peat soil-pozzolana substrate and grown at 18-20° C., are treated at the cotyledon stage by spraying with the aqueous suspension described above.
Plants, used as controls, are treated with an aqueous solution not containing the active material.
After 24 hours, the plants are contaminated by spraying them with an aqueous suspension of Alternaria brassicae spores (40,000 spores per cm^3). The spores are collected from a 12-13-day-old culture.
The contaminated radish plants are incubated for 6-7 days at about 18° C., under a humid atmosphere.
Grading is carried out 6 to 7 days after the contamination, in comparison with the control plants.

Another assay relates to Botrytis cinerea. Put plainly: Effectiveness on Botrytis cinerea. It counts as in vivo. As to conditions: 330 ppm; comparison compounds of WO 01/11965.
For another assay, the system named is Peronospora parasitica. Put plainly: Efficacy against Peronospora parasitica. It counts as in vivo. The conditions noted are these: 330 ppm; comparison compound of WO 01/11965.

As for `CCNC(=O)C(Cc1ncc(C(F)(F)F)cc1Cl)NC(=O)c1cccc([N+](=O)[O-])c1` (stereo not shown) [compound 307, N-{1-ethylcarbamoyl-2-[3-chloro-5-(trifluoromethyl)-2-pyridinyl]ethyl}-3-nitrobenzamide], the “effectiveness on Alternaria brassicae” value in the assay with Alternaria brassicae is given as “poor effectiveness”. Moreover, the “effectiveness on Botrytis cinerea” value in the assay on Botrytis cinerea is “zero effectiveness”.

For the molecule `CNC(=O)C(Cc1ncc(C(F)(F)F)cc1Cl)NC(=O)c1ccccc1` (stereo not shown) [compound 314, N-{1-methylcarbamoyl-2-[3-chloro-5-(trifluoromethyl)-2-pyridinyl]ethyl}-benzamide], the “effectiveness on Botrytis cinerea” value in the assay with Botrytis cinerea is “zero effectiveness”.

Take `CCNC(=O)C(Cc1ncc(C(F)(F)F)cc1Cl)NC(=O)c1ccc(Cl)cc1` (stereo not shown) [compound 306, N-{1-ethylcarbamoyl-2-[3-chloro-5-(trifluoromethyl)-2-pyridinyl]ethyl}-4-chlorobenzamide]: the “effectiveness on Botrytis cinerea” value with Botrytis cinerea is “zero effectiveness”.

For `CCNC(=O)C(Cc1ncc(C(F)(F)F)cc1Cl)NC(=O)c1ccccc1Br` (stereo not shown) [compound 310, N-{1-ethylcarbamoyl-2-[3-chloro-5-(trifluoromethyl)-2-pyridinyl]ethyl}-2-bromobenzamide], in the assay with Botrytis cinerea, the “effectiveness on Botrytis cinerea” value was “zero effectiveness”.

In the case of `CNC(=O)C(Cc1ncc(C(F)(F)F)cc1Cl)NC(=O)c1ccc(OC)cc1` (stereo not shown) [compound 315, N-{1-methylcarbamoyl-2-[3-chloro-5-(trifluoromethyl)-2-pyridinyl]ethyl}-4-methoxybenzamide], the “effectiveness on Botrytis cinerea” value with Botrytis cinerea was “zero effectiveness”.

For the molecule `CNC(=O)C(Cc1ncc(C(F)(F)F)cc1Cl)NC(=O)c1ccc(-c2ccccc2)cc1` (stereo not shown) [compound 316, N-{1-methylcarbamoyl-2-[3-chloro-5-(trifluoromethyl)-2-pyridinyl]-ethyl}-4-phenylbenzamide], the “effectiveness on Alternaria brassicae” value with Alternaria brassicae is listed as “poor effectiveness”. Moreover, the “effectiveness on Botrytis cinerea” value with Botrytis cinerea is on record as “zero effectiveness”.

Regarding `CCNC(=O)C(Cc1ncc(C(F)(F)F)cc1Cl)NC(=O)c1ccccc1` (stereo not shown) [compound 304, N-{1-ethylcarbamoyl-2-[3-chloro-5-(trifluoromethyl)-2-pyridinyl]-ethyl}-benzamide], the “effectiveness on Botrytis cinerea” value in the assay with Botrytis cinerea was “zero effectiveness”.

As to `O=C(NCCc1ncc(Br)cn1)c1ccccc1C(F)(F)F` [Compound A-1, N-[2-(5-bromopyrimidin-2-yl)ethyl]-2-(trifluoromethyl)benzamide], the “good (at least 50%) [protection] versus control plants” value in the assay with Alternaria brassicae (radish plants (Pernot variety), preventive spray 24 hours before contamination, dose 500 ppm, grading 6 to 7 days after contamination) is recorded as “at least 50%”.

Take `O=C(Cc1cccs1)NCc1ncc(C(F)(F)F)cc1Cl` [compound 101, N-{[3-chloro-5-(trifluoromethyl)-2-pyridinyl]methyl}-5-thienylacetamide]: the “effectiveness on Alternaria brassicae” value in the assay on Alternaria brassicae was “poor efficacy”. For the same molecule, the “effectiveness on Botrytis cinerea” value in the assay with Botrytis cinerea is “no efficacy”. Besides, the “efficacy against Peronospora parasitica” value in the assay on Peronospora parasitica is “no efficacy”.
